Source: ChEMBL document CHEMBL1201862, “PubChem BioAssay data set” (2004)
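How tested: cells in 96-well plates exposed to compound for 48 hours at five concentrations. Abbreviation: GI50, concentration required for 50% inhibition of growth.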 Calls of active or inactive are those of the source. Cut-off read from the data, not from the text of the source: active = GI50 up to about 1.1 µM and inactive = higher.

Key:
Experiment in all cases: inhibition of tumour cell growth, NCI panel, 48 h
[1] = tested on: HOP-62
[2] = tested on: NCI-H23
[3] = tested on: ACHN
[4] = tested on: Hs-578T
[5] = tested on: MDA-MB-435
[6] = tested on: Malme-3M
[7] = tested on: CCRF-CEM
[8] = tested on: NCI-H460
[9] = tested on: A498
[10] = tested on: TK-10
[11] = tested on: SF-268
[12] = tested on: NCI/ADR-RES
[13] = tested on: 786-0
[14] = tested on: MDA-N
[15] = tested on: M14
[16] = tested on: CAKI-1
[17] = tested on: SN12C
[18] = tested on: SF-295
[19] = tested on: UACC-62
[20] = tested on: EKVX
[21] = tested on: HCT-15
[22] = tested on: K562
[23] = tested on: OVCAR-4
[24] = tested on: SK-MEL-5
[25] = tested on: SW-620
[26] = tested on: HCC 2998
[27] = tested on: UACC-257
[28] = tested on: COLO 205
[29] = tested on: OVCAR-5
[30] = tested on: A549
[31] = tested on: SNB-19
[32] = tested on: SK-MEL-2
[33] = tested on: RPMI-8226
[34] = tested on: SK-MEL-28
[35] = tested on: U-251
[36] = tested on: HT-29
[37] = tested on: NCI-H226
[38] = tested on: HOP-92
[39] = tested on: KM12
[40] = tested on: HCT-116
[41] = tested on: PC-3
[42] = tested on: BT-549
[43] = tested on: OVCAR-8
[44] = tested on: SK-OV-3
[45] = tested on: MDA-MB-231
[46] = tested on: LOX IMVI
[47] = tested on: NCI-H522
[48] = tested on: UO-31
[49] = tested on: HL-60
[50] = tested on: SF-539
[51] = tested on: OVCAR-3
[52] = tested on: MCF7
[53] = tested on: SR
[54] = tested on: IGROV-1

With `NC(=O)SCC(=O)Nc1ccc2ncccc2c1` the GI50 [1] was > 100 µM (inactive), the GI50 [2] was > 100 µM (inactive) and the GI50 [3] was > 100 µM (inactive). For the same compound, the GI50 [4] was 67.3 µM (inactive), the GI50 [5] was 48.3 µM (inactive) and the GI50 [6] was 56.1 µM (inactive). The GI50 [7] was 29.6 µM (inactive), the GI50 [8] was 85.3 µM (inactive) and the GI50 [9] was > 100 µM (inactive). For the same compound, the GI50 [10] was 54.7 µM (inactive), the GI50 [11] was 49.1 µM (inactive) and the GI50 [12] was > 100 µM (inactive). The GI50 [13] was 26.8 µM (inactive), the GI50 [14] was 61.5 µM (inactive) and the GI50 [15] was > 100 µM (inactive). For the same compound, the GI50 [16] was > 100 µM (inactive), the GI50 [17] was 56 µM (inactive) and the GI50 [18] was 53.2 µM (inactive). The GI50 [19] was 46.2 µM (inactive), the GI50 [20] was > 100 µM (inactive) and the GI50 [21] was 55.1 µM. For the same compound, the GI50 [22] was 36.1 µM (inactive), the GI50 [23] was > 100 µM (inactive) and the GI50 [24] was 43.4 µM (inactive). The GI50 [25] was > 100 µM (inactive), the GI50 [26] was > 100 µM (inactive) and the GI50 [27] was 71.3 µM (inactive). The GI50 [28] was > 100 µM (inactive), the GI50 [29] was > 100 µM (inactive) and the GI50 [30] was > 100 µM (inactive). The GI50 [31] was 40.6 µM (inactive), the GI50 [32] was 46.8 µM (inactive) and the GI50 [33] was 23.6 µM (inactive). The GI50 [34] was > 100 µM (inactive), the GI50 [35] was 21.5 µM (inactive) and the GI50 [36] was > 100 µM (inactive). The GI50 [37] was > 100 µM (inactive), the GI50 [38] was 35.2 µM (inactive) and the GI50 [39] was 45.4 µM (inactive). For the same compound, the GI50 [40] was > 100 µM (inactive), the GI50 [41] was 64.9 µM (inactive) and the GI50 [42] was 74.5 µM (inactive). The GI50 [43] was > 100 µM (inactive), the GI50 [44] was > 100 µM (inactive) and the GI50 [45] was > 100 µM (inactive). For the same compound, the GI50 [46] was 31.6 µM (inactive), the GI50 [47] was 27.7 µM (inactive) and the GI50 [48] was > 100 µM (inactive). For the same compound, the GI50 [49] was > 100 µM (inactive), the GI50 [50] was 28.1 µM (inactive) and the GI50 [51] was 35.5 µM (inactive). For the same compound, the GI50 [52] was 46.8 µM (inactive), the GI50 [53] was 49 µM (inactive) and the GI50 [54] was > 100 µM (inactive).
